Laboratory results taken from patent US10434199B2, “Picolinate cross-bridged cyclams, chelates with metallic cations and use thereof” (UNIVERSITÉ DE BRETAGNE OCCIDENTALE, priority 2013, dated 2019).

Experiments:
[1] = Potentiometric titrations: stability constants and pM of Cu^2+ complexes; format: physicochemical
Experimental: Equipment and work conditions. The potentiometric setup has been described in Roger, M. et al. Inorg. […] Ligand solutions were prepared at about 2.0×10^−3 M, and the Cu^2+ and Zn^2+ solutions at ca. 0.05 M from analytical grade nitrate salts and standardized by complexometric titrations with H4edta (ethylenediaminetetraacetic acid). Sample solutions for titration contained approximately 0.04 mmol of ligand in a volume of 30 mL where the ionic strength was kept at 0.10 M using KNO3 as background electrolyte. Metal cations were added at 0.9 equiv. of the ligand amount in complexation titrations. Batch titrations were prepared in a similar way but with each titration point corresponding to 1/10 of the amount of a conventional titration sample.
(§1) Measurements. All measurements were carried out at 25.0±0.1° C. under inert atmosphere. The electromotive force of the sample solutions was measured after calibration of the electrodes by titration of a standard HNO3 solution at 2.0×10^−3 M in the work conditions. The [H^+] of the solutions was determined by measurement of the electromotive force of the cell, E=E^o′+Q log [H^+]+Ej. The term pH is defined as −log [H^+]. E^o′ and Q were determined from the acid region of the calibration curves. Deviations from the Nernst law at very low pH (pH<2.5) were corrected with the VLpH software (Calibration software from the maker of Hyperquad available for free at http://www.hyperquad.co.uk/), which performs a [H^+] correction based on a very low pH calibration procedure.
(§2) Calculations. The potentiometric data were refined with the Hyperquad software, and speciation diagrams were plotted using the HySS software. The overall equilibrium constants βi^H and βMmHhL1 are defined by βMmHhL1=[MmHhLl]/[M]^m[H]^h[L]^l (βi^H=[HhLl]/[H]^h[L]^l and βML-1L=βML(OH)×Kw). Differences in log units between the values of protonated (or hydrolysed) and non-protonated constants provide the stepwise (log K) reaction constants (being KMmHhL1=[MmHhLl]/[MmHh-1Ll][H]). The errors quoted are the standard deviations calculated by the fitting program from all the experimental data for each system.
(§3) The stability constants of the complexes formed by Hcb-te1pa with Cu^2+ and Zn^2+ were determined by potentiometric titrations in aqueous solution at 25.0° C. in 0.10 M KNO3 ionic strength (Table 2).
During titrations, each experimental point included a supplementary equilibration time in order to yield fully stabilized measurements. […] For this reason, batch titrations were prepared in the range of pH=4-6 and were left to equilibrate until full stabilization, while conventional titrations were used for the remaining pH regions.
For a correct comparison of the thermodynamic stability of the complexes of Hcb-te1pa with the corresponding values of other ligands from the literature, the pM values that take into account the variable basicity properties of different ligands were also calculated (Table 3). […] The thermodynamic stability is not the only important criterion to determine the efficiency of metal complexation because, depending on the application, other factors such as kinetic inertness or in vivo stability can be more important.

[2] = Potentiometric titrations: stability constants and pM of Zn^2+ complexes; format: physicochemical
Experimental: Equipment and work conditions. The potentiometric setup has been described in Roger, M. et al. Inorg. Chem. 2013, 52, 5246-5259. The titrant was a KOH solution prepared at ca. 0.1 M from a commercial ampoule of analytical grade, and its accurate concentration was obtained by application of the Gran's method upon titration of a standard HNO3 solution (Rossotti, F. J. and Rossotti, H. J. J. Chem. Educ. 1965, 42, 375-378). Ligand solutions were prepared at about 2.0×10^−3 M, and the Cu^2+ and Zn^2+ solutions at ca. 0.05 M from analytical grade nitrate salts and standardized by complexometric titrations with H4edta (ethylenediaminetetraacetic acid). Sample solutions for titration contained approximately 0.04 mmol of ligand in a volume of 30 mL where the ionic strength was kept at 0.10 M using KNO3 as background electrolyte. Metal cations were added at 0.9 equiv. of the ligand amount in complexation titrations. Batch titrations were prepared in a similar way but with each titration point corresponding to 1/10 of the amount of a conventional titration sample. Batch titration points were incubated in tightly closed vials at 25° C. until potential measurements attained complete stability, which happened within a week.
as §1, with “procedure. The liquid-junction potential, Ej, was otherwise found to be negligible for pH >2.5 under the experimental conditions used. […] Each titration consisted of 80-100 equilibrium points in the range of pH 2.5-11.5 (or 1.5-11.5 for Cu^2+ complexations), and at least two replicate titrations were performed for each particular system.” for “procedure.”
as §2, §3
The equilibrium of formation of the copper(II) and especially the zinc(II) complexes is slow in the acidic pH range. In the case of Cu^2+, the complexation is almost complete from low pH but relatively slow up to pH=4. To overcome this double problem, conventional titrations were performed at pH values below 2 in order to observe a significant percentage of free metal ion (at least 18%) and thus allow for determination of the corresponding stability constant, while giving the solution enough time to reach equilibrium prior to the start of the titration. During titrations, each experimental point included a supplementary equilibration time in order to yield fully stabilized measurements. […]

[3] = pH = 7.4, 100% excess of ligand, [M^2+]tot = 1 × 10^−5 M

log KMLHh, Cu^2+ + L ⇌ CuL ([1]; 25.0° C., I = 0.10M KNO3): 26.00 log units
log βMLHh, Cu^2+ + L ⇌ CuL ([1]; 25.0° C., I = 0.10M KNO3): 26.00(5) log units
b) thermodynamic stability: log K[CuL] ([1]; overview table): 26.00
b) thermodynamic stability: pCu ([1]; overview table, calculated pM): 15.67
Calculated pM, Cu^2+ [1, 3]: 15.67
log KMLHh, ZnLOH + H^+ ⇌ ZnL ([2]; 25.0° C., I = 0.10M KNO3): 11.33 log units
log KMLHh, Zn^2+ + L ⇌ ZnL ([2]; 25.0° C., I = 0.10M KNO3): 18.83 log units
log βMLHh, Zn^2+ + L ⇌ ZnL ([2]; 25.0° C., I = 0.10M KNO3): 18.83(6) log units
log βMLHh, Zn^2+ + L ⇌ ZnLOH + H^+ ([2]; 25.0° C., I = 0.10M KNO3): 7.50(7) log units
c) inertness vs Zn: log K[ZnL] ([2]; overview table): 18.83
c) inertness vs Zn: pZn ([2]; overview table, calculated pM): 8.50
Calculated pM, Zn^2+ [2, 3]: 8.50
SMILES: O=C(O)c1cccc(CN2CCCN3CCNCCCN(CC3)CC2)n1 [Hcb-te1pa, 6-(1,4,8,11-tetraazabicyclo[6.6.2]hexadecan-4-ylmethyl)picolinic acid]
